Measurements reported in US20230265151A1, “GIP/GLP1 CO-AGONIST COMPOUNDS” (priority 2020, published 2023).
Where two headings read alike, the source gives them in different places. *1 amine or outer side, *2 acyl side, *3 side chain or, on linkers, in order; H or OH if unused. Where a SMILES comes first, the peptide text is derived from it. Side-chain parts run from the residue outwards. [ ]: non-standard residue; d: D form. The star is where a group is joined. αMePhe(2-F) = C[C@](N)(Cc1ccccc1F)C(=O)O; γGlu = O=C(O)[C@H](CCC(=O)[*:2])N[*:1]; C14 diacid = O=C(O)CCCCCCCCCCCCC(=O)*; αMeY = C[C@](N)(Cc1ccc(O)cc1)C(=O)O; αMeL = CC(C)C[C@](C)(N)C(=O)O; Orn = NCCC[C@H](N)C(=O)O; AEEA = NCCOCCOCC(=O)O; Aib = CC(C)(N)C(=O)O

How the values were obtained:
Type in all cases: cell-based
hGIPR = target: T1, hGIPR (Homo sapiens, UniProt P48546); experiment: Functional cAMP formation (HTRF) in HEK-293 clonal cells expressing hGIPR, 0.1% bovine casein, without or with 1.0% human serum albumin; details: 37° C.; for Emax: read-out: hGIPR Emax, % ± SEM
T1 construct: expressed in transfected cells
T1 sequence (P48546 22-466): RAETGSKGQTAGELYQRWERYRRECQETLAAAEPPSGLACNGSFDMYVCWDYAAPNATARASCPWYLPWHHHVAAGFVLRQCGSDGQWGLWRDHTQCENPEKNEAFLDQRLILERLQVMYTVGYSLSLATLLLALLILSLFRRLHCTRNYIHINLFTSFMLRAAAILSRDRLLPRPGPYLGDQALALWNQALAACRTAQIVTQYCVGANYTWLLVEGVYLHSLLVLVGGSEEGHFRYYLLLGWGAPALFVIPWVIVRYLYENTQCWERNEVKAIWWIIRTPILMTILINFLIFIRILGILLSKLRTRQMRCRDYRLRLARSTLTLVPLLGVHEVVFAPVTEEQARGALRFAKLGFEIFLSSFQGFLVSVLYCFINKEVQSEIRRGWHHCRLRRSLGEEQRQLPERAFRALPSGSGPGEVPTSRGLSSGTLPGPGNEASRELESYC
Procedure, shortened: (§1)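 Cells were stimulated with peptide for 30 min at 37° C, then lysed in buffer carrying cAMP-d2 and anti-cAMP Eu3+-cryptate for a competitive HTRF read after at least 60 min at room temperature. The 665/620 nm ratio was converted to nM cAMP against a standard curve.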

hGCGR = target: T2, hGCGR (Homo sapiens, UniProt P47871); experiment: Functional cAMP formation (HTRF) in HEK-293 clonal cells expressing hGCGR, 0.1% bovine casein, without or with 1.0% human serum albumin; details: read-out: hGCGR EC50, nM (SEM, n)
T2 construct: expressed in transfected cells
Procedure, shortened: as §1

hGLP-1R = hGLP-1R (Homo sapiens, UniProt P43220); experiment: Functional cAMP formation (HTRF) in HEK-293 clonal cells expressing hGLP-1R, 0.1% bovine casein, without or with 1.0% human serum albumin; parameters: expressed in transfected cells; details: for Emax: read-out: hGLP-1R Emax, % ± SEM; for EC50: read-out: hGLP-1R EC50, nM (SEM, n)
Procedure, shortened: as §1

[1] = cAMP, 37° C., 0.1% bovine casein (no human serum albumin), geometric mean
[2] = cAMP, 37° C., 0.1% bovine casein and 1.0% human serum albumin, geometric mean (SEM, n)
[3] = 0.1% bovine casein and 1.0% human serum albumin, 37° C., geometric mean
[4] = cAMP, incubated at 37° C., 0.1% bovine casein (no human serum albumin), geometric mean

Sequence of hGLP-1R (P43220 24-463): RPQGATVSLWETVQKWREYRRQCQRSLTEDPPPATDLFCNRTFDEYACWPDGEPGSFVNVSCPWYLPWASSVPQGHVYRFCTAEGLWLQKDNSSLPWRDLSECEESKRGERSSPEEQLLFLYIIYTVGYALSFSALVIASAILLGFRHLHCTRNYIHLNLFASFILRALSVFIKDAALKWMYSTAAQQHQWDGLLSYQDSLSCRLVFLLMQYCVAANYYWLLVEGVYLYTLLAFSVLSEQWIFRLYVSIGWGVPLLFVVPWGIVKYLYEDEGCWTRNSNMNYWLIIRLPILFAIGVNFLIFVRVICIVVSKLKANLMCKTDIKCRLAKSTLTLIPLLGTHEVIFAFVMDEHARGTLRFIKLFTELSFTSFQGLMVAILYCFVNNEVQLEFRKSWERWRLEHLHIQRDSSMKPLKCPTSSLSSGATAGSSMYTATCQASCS
T2 sequence (P47871 26-477): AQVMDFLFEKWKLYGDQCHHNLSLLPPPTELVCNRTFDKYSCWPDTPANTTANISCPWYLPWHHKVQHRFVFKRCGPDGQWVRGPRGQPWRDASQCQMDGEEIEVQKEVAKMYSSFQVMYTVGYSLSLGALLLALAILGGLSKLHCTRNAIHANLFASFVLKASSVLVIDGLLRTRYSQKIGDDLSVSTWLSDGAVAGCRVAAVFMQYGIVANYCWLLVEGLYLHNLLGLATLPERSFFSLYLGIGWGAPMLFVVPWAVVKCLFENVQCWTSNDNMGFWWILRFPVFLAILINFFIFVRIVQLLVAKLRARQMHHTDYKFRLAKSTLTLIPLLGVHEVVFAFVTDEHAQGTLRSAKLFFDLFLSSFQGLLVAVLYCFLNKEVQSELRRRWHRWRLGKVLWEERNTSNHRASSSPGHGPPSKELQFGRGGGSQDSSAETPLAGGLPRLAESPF

| Compound | Emax (hGIPR; HEK293, cAMP, 0.1% bovine casein and 1.0% human serum albumin, percent of maximal response to GIP(1-42)NH2) [%] | Emax (hGIPR; HEK293, cAMP, 0.1% bovine casein, percent of maximal response to GIP(1-42)NH2, arithmetic mean) [%] | EC50 (hGIPR; cAMP, 0.1% bovine casein (no human serum albumin), geometric mean, read-out: hGIPR EC50, nM (SEM, n)) [nM] | EC50 (hGCGR; [1]) [nM] | EC50 (hGCGR; [2]) [nM] | Emax (hGLP-1R; HEK293, cAMP, 37° C., 0.1% bovine casein and 1.0% human serum albumin, percent of maximal response to GLP-1(7-36)NH2) [%] | Emax (hGLP-1R; HEK293, cAMP, 37° C., 0.1% bovine casein, percent of maximal response to GLP-1(7-36)NH2, arithmetic mean) [%] | EC50 (hGLP-1R; [1]) [nM] | EC50 (hGLP-1R; [2]) [nM] | Emax (hGIPR; HEK293, percent of maximal response to GIP(1-42)NH2, 0.1% bovine casein, arithmetic mean) [%] | EC50 (hGCGR; [3]) [nM] | EC50 (hGCGR; [4]) [nM] | EC50 (hGLP-1R; [3]) [nM] | Emax (hGLP-1R; HEK293, 0.1% bovine casein and 1.0% human serum albumin, 37° C., percent of maximal response to GLP-1(7-36)NH2) [%] | Emax (hGLP-1R; HEK293, percent of maximal response to GLP-1(7-36)NH2, 37° C., 0.1% bovine casein, arithmetic mean) [%] | EC50 (hGLP-1R; [4]) [nM] |
| --- | --- | --- | --- | --- | --- | --- | --- | --- | --- | --- | --- | --- | --- | --- | --- | --- |
| CCCCCCCCCCCC(=O)N[C@@H](CCC(=O)NCCOCCOCC(=O)NCCCC[C@H](NC(=O)[C@H](CCCN)NC(=O)[C@H](CC(=O)O)NC(=O)[C@H](CC(C)C)NC(=O)[C@](C)(CC(C)C)NC(=O)[C@@H](NC(=O)C(C)(C)NC(=O)[C@H](Cc1ccncc1)NC(=O)[C@H](CC(=O)O)NC(=O)[C@H](CO)NC(=O)[C@@H](NC(=O)[C@](C)(Cc1ccccc1F)NC(=O)[C@@H](NC(=O)CNC(=O)[C@H](CCC(=O)O)NC(=O)C(C)(C)NC(=O)[C@@H](N)Cc1ccc(O)cc1)[C@@H](C)O)[C@@H](C)O)[C@@H](C)CC)C(=O)N[C@@H](C)C(=O)N[C@@H](CCC(N)=O)C(=O)NC(C)(C)C(=O)N[C@@H](CCC(=O)O)C(=O)N[C@@H](Cc1ccccc1)C(=O)N[C@H](C(=O)N[C@H](CCC(=O)O)C(=O)N[C@@](C)(Cc1ccc(O)cc1)C(=O)N[C@@H](CC(C)C)C(=O)N[C@H](C(=O)N[C@@H](CCCCNC(=O)COCCOCCNC(=O)CC[C@H](NC(=O)CCCCCCCCCCC)C(=O)O)C(=O)NCC(=O)NCC(=O)N1CCC[C@H]1C(=O)N[C@@H](CO)C(=O)N[C@@H](CO)C(=O)NCC(=O)N[C@@H](C)C(=O)N1CCC[C@H]1C(=O)N1CCC[C@H]1C(=O)N1CCC[C@H]1C(=O)N[C@@H](CO)C(N)=O)[C@@H](C)CC)[C@@H](C)CC)C(=O)O [Example 427] | 92.4 | 95.9 | 0.0132 | > 9950 | > 9950 | 109 | 109 | 0.206 | 25.1 |  |  |  |  |  |  |  |
| CC[C@H](C)[C@H](NC(=O)[C@H](CC(C)C)NC(=O)[C@](C)(Cc1ccc(O)cc1)NC(=O)[C@@H](CCC(=O)O)NC(=O)[C@@H](NC(=O)[C@H](Cc1ccccc1)NC(=O)[C@H](CCC(=O)O)NC(=O)C(C)(C)NC(=O)[C@H](CCC(N)=O)NC(=O)[C@H](C)NC(=O)[C@H](CCCCNC(=O)COCCOCCNC(=O)COCCOCCNC(=O)CC[C@H](NC(=O)CCCCCCCCCCCCC(=O)O)C(=O)O)NC(=O)[C@H](CCCN)NC(=O)[C@H](CC(=O)O)NC(=O)[C@H](CC(C)C)NC(=O)[C@](C)(CC(C)C)NC(=O)[C@@H](NC(=O)[C@H](CO)NC(=O)[C@@H](NC(=O)[C@H](CC(=O)O)NC(=O)[C@H](CO)NC(=O)[C@@H](NC(=O)[C@](C)(Cc1ccccc1F)NC(=O)[C@@H](NC(=O)CNC(=O)[C@H](CCC(=O)O)NC(=O)C(C)(C)NC(=O)[C@@H](N)Cc1ccc(O)cc1)[C@@H](C)O)[C@@H](C)O)C(C)C)[C@@H](C)CC)[C@@H](C)CC)C(=O)N[C@@H](CCC(=O)O)C(=O)NCC(=O)NCC(=O)N[C@@H](CCCCNC(=O)COCCOCCNC(=O)COCCOCCNC(=O)CC[C@H](NC(=O)CCCCCCCCCCCCC(=O)O)C(=O)O)C(=O)N[C@@H](CO)C(=O)N[C@@H](CO)C(=O)NCC(=O)N[C@@H](C)C(=O)N1CCC[C@H]1C(=O)N1CCC[C@H]1C(=O)N1CCC[C@H]1C(=O)N[C@@H](CO)C(N)=O [Example 90] (H-Y[Aib]EGT[αMePhe(2-F)]TSDVSI[αMeL]LD[Orn]K([AEEA-AEEA-γGlu-C14 diacid])AQ[Aib]EFI[dE][αMeY]LIEGGK([AEEA-AEEA-γGlu-C14 diacid])SSGAPPPS-NH2) |  |  |  |  |  |  |  |  |  | 93 ± 3.31 | > 9950 | > 9950 | 23.4 | 96.6 | 96.2 ± 1.5 | 0.221 |
